Measurements as given in patent US20210353585A1, “METHODS AND COMPOSITIONS FOR TREATING LAMINOPATHIES AFFECTING SKELETAL OR CARDIAC MUSCLE” (CORNELL UNIVERSITY, priority 2018, published 2021).

Legend:
Lmna WT myofibers [1] = assay: Cell viability MTT assay, Lmna WT; assay type: cell-based, mouse; conditions: wild-type myofibers; phleomycin 20 μg/ml pulses combined with NU7441 (2 μM) and/or KU55933 (2 μM); comparable to untreated Lmna KO
Experimental: (§1) Pharmacological treatments. For preliminary experiments, myoblasts were differentiated using the standard protocol and treated with pharmacological treatments starting at day 5 of differentiation. For chromatin protrusion studies, paclitaxel was administered to differentiated myotubes in two 24 hours bursts at day 4 and day 6-post differentiation with a 24 hour recovery in between. Myotubes were then fixed in 4% PFA at day 7 and stained with anti-lamin B and DAPI in order to quantify the percentage of myonuclei with chromatin protrusions. For long term studies using the cGAS reporter, myotubes were treated with 10 nM of paclitaxel starting at day 5 and then media was refreshed every day. […] For DNA damage induction and inhibitor experiments, cells were treated with 20 μg/ml of phleomycin for a two-hour pulse on Day 3, 4, and 5 of differentiation. Concurrently, cells were treated with NU7441 (2 μM), KU55933 (2 μM) starting at day 2 of differentiation through day 10 of differentiation. For induction of DN-KASH and DN-KASHext, cells were treated with 1 μM doxycycline.
(§2) MTT assay. Myoblasts, seeded in a 96-well plate and differentiated as previously described for 0, 5, or 10 days, were assayed for cell viability according to the manufacturer's instructions (Promega, CellTiter 96 Non-Radioactive Cell Proliferation Assay). Fresh differentiation media was added two hours prior to the addition of 15 μL MTT 3-(4,5-dimethylthiazol-2-yl)-2,5-diphenyltetrazolium bromide dye. After incubation for 3 hours in MTT dye, 100 uL of Stop Solution was added to solubilize the formazan product (appears purple). Following overnight incubation at 37° C. and 5% CO2, the absorbance of each well (measured at 590 nm) was analyzed using a microplate reader.

Lmna KO myofibers [2] = assay: Cell viability MTT assay, Lmna KO; assay type: cell-based, mouse; conditions: phleomycin alone or in combination with NU7441 and/or KU55933
Experimental: as §1, §2

Lmna WT myofibers [3] = assay: DNA damage by γH2AX foci per nucleus, Lmna WT; assay type: cell-based, mouse; conditions: for DNA damage (γH2AX foci per nucleus): Lmna WT cells, phleomycin with DNA-PK+ATM inhibition vs phleomycin alone; for DNA damage (γH2AX foci): wild-type myofibers, phleomycin 20 μg/ml pulses combined with NU7441 (2 μM) and/or KU55933 (2 μM), comparable to untreated Lmna KO
Experimental: as §1
Immunofluorescence staining of mouse cells and tissues. Cells were fixed in pre-warmed 4% PFA at the appropriate time point(s) and washed with PBS. Cells were blocked and permeabilized with a solution of 3% BSA, 0.1% Triton-X 100 and 0.1% Tween (Sigma) for 1 hour at room temperature. Cells were stained with primary antibodies diluted in blocking solution according to Table 4 at 4° C. overnight. Samples were washed with PBS and incubated for 1 hour at room temperature with 1:250 dilution of AlexaFluor antibodies (Invitrogen) and 1:1000 DAPI (Sigma). Single muscle fibers were stained using the same procedure in Eppendorf tube baskets with an increase in blocking solution Triton-X concentration to 0.25%.
Image analysis. Image sequences were analyzed using ZEN (Zeiss), ImageJ, or MATLAB (Mathworks) using only linear adjustments uniformly applied to the entire image region. Region of interest intensities were extracted using ZEN or ImageJ. To quantify cleaved caspase-3 (i.e. active) area and myofiber health, maximum intensity protections were generated, which were then blinded to the observer. Cleaved caspase-3 area was calculated by thresholding of the caspase-3 and myosin heavy chain fluorescent signal and expressing the cleaved caspase-3 signal relative to the myosin heavy chain signal. Myofiber contractions were scored based on a minimum of 6 random fields of view per replicate using a blinded analysis according to the scales provided in FIGS. 4A-4B. […] Protrusions lengths were both counted and measured by the presence of DAPI signal beyond the lamin B rim of the nucleus. Aspect ratio was quantified based on a thresholded lamin B rim to avoid the confounding factor of the DNA protrusions outside the body of the nucleus. Nuclear rupture was detected by an increase of the cytoplasmic NLS-GFP signal, or the localization of cGAS-mCherry to the nucleus. For better visualization of NLS-GFP cells many of the fluorescent single color image sequences were inverted. […] DNA damage was determined by counting H2AX foci and then binned based on foci number. If damage was so severe that individual foci could not be counted, these nuclei were placed in the >25 foci category. For Hsp90 quantification, average nuclear Hsp90 fluorescence intensity was determined from a single mid-nucleus z-plane image and normalized to the cytoplasmic intensity at two points immediately adjacent to the nucleus.

chick cardiac tissue = conditions: Cho et al. 2019; cited from earlier work
Lmna H222P mice = conditions: Macquart et al. 2018; cited from earlier work
Lmna KO myofibers [4] = assay: Quantification of myonuclei with chromatin protrusions; assay type: cell-based, mouse; conditions: paclitaxel 50 nM starting day 4, read day 7, vs DMSO
Experimental: Pharmacological treatments. For preliminary experiments, myoblasts were differentiated using the standard protocol and treated with pharmacological treatments starting at day 5 of differentiation. For chromatin protrusion studies, paclitaxel was administered to differentiated myotubes in two 24 hours bursts at day 4 and day 6-post differentiation with a 24 hour recovery in between. Myotubes were then fixed in 4% PFA at day 7 and stained with anti-lamin B and DAPI in order to quantify the percentage of myonuclei with chromatin protrusions. For long term studies using the cGAS reporter, myotubes were treated with 10 nM of paclitaxel starting at day 5 and then media was refreshed every day. […]
Image analysis. Image sequences were analyzed using ZEN (Zeiss), ImageJ, or MATLAB (Mathworks) using only linear adjustments uniformly applied to the entire image region. […] To quantify cleaved caspase-3 (i.e. active) area and myofiber health, maximum intensity protections were generated, which were then blinded to the observer. Cleaved caspase-3 area was calculated by thresholding of the caspase-3 and myosin heavy chain fluorescent signal and expressing the cleaved caspase-3 signal relative to the myosin heavy chain signal. Myofiber contractions were scored based on a minimum of 6 random fields of view per replicate using a blinded analysis according to the scales provided in FIGS. 4A-4B. […]

Lmna KO myofibers [5] = assay: Nuclear envelope rupture, cGAS-mCherry reporter foci; assay type: cell-based, mouse; conditions: paclitaxel 10 nM starting day 5, vs DMSO
Text: Each of the mutant myoblast lines were stably modified with lentiviral vectors to express the nuclear rupture reporter NLS-GFP (pCDH-CMV-NLS-copGFP-EF1-blastiS) and cGAS-mCherry (pCDH-CMV-eGAs^E225A/D227A-mCherry2-EF1-blastiS). cGAS is a cytosolic DNA binding protein; a cGAS mutant (E225A/D227A) with abolished enzyme activity and interferon production, but that still binds DNA (Civril et al., “Structural Mechanism of Cytosolic DNA Sensing by cGAS,” Nature 498:332-337 (2013), which is hereby incorporated by reference in its entirety) and serves as a nuclear envelope rupture reporter (Denais et al., “Nuclear Envelope Rupture and Repair During Cancer Cell Migration,” Science 352:353-358 (2016), which is hereby incorporated by reference in its entirety) was used.
Extended imaging using incubator microscope. […] Resulting images were analyzed using the Incucyte software, which performs fluorescence background subtraction using a top hat method and then subsequent thresholding. cGAS-mCherry cells were thresholded and then analyzed for increase in fluorescent foci over time to track the rate of increase in nuclear envelope rupture or damage. […]

Lmna KO myofibers [6] = assay: Microharpoon assay of nuclear deformation; assay type: cell-based, mouse; conditions: Lmna KO myotubes, 50 nM paclitaxel for 24 hours vs DMSO
Experimental: For the microharpoon studies, myoblasts were seeded in 35 mm glass bottom dishes and differentiated as previously described, except without the addition of a Matrigel top coat to allow microharpoon access. A Sutter P-97 micropipette puller was used to create microharpoons from borosilicate glass rods (Sutter; OD: 1.0 mm, ID: 0.78, 10 cm length) with tip diameters of ≈1 μm. Day 4 myotubes (Lmna KO and wild-type) were treated for 24 hours with either 50 nM Paclitaxel or the corresponding 0.1% DMSO. The following day, the microharpoon assay was performed as described in Fedorchak et al., “Cell Microharpooning to Study Nucleo-Cytoskeletal Coupling,” Methods Mol. Biol. 1411:241-254 (2016), which is hereby incorproated by reference in its entirety, with slight modifications to the pull parameters to accommodate myotubes. The microharpoon was inserted ≈5-7 μm from the edge of the nucleus and pulled 15 μm at a rate of 1 μm/s. Pull direction was always orthogonal to the long axis of the myofiber. Images were acquired at 40× (+1.6×) every 5 seconds. Nuclear strain and centroid displacement were calculated using a custom-written MATLAB program. […]

Row | Compound | myofiber viability (MTT) (Lmna WT myofibers [1]) | myofiber viability (MTT) (Lmna KO myofibers [2]) | DNA damage (γH2AX foci per nucleus) (Lmna WT myofibers [3]) | DNA damage (γH2AX foci) (Lmna WT myofibers [3]) | nuclear envelope rupture (chick cardiac tissue) | cardiac conduction defects (Lmna H222P mice) | percentage of nuclei with chromatin protrusions (Lmna KO myofibers [4]) | incidence of nuclear envelope rupture (cGAS-mCherry foci) (Lmna KO myofibers [5]) | nuclear deformation in response to cytoplasmic force application (nuclear strain) (Lmna KO myofibers [6])
1 | O=c1cc(-c2cccc3c2Sc2ccccc2S3)oc(N2CCOCC2)c1 [KU55933] | loss of viability | did not further reduce viability | significant increase in DNA damage | accumulation of DNA damage |  |  |  |  | 
2 | Cc1ccc2c(c1)C(=O)C1(O)CCN(c3ccccc3)C1=N2 (stereo not shown) [blebbistatin] |  |  |  |  | rescued |  |  |  | 
3 | phleomycin | loss of viability | did not further reduce viability |  | accumulation of DNA damage |  |  |  |  | 
4 | O=c1cc(N2CCOCC2)oc2c(-c3cccc4c3sc3ccccc34)cccc12 [NU7441] | loss of viability | did not further reduce viability | significant increase in DNA damage | accumulation of DNA damage |  |  |  |  | 
5 | CC(=O)O[C@H]1C(=O)[C@@]2(C)[C@H]([C@H](OC(=O)c3ccccc3)[C@]3(O)C[C@H](OC(=O)[C@H](O)[C@@H](NC(=O)c4ccccc4)c4ccccc4)C(C)=C1C3(C)C)[C@]1(OC(C)=O)CO[C@@H]1C[C@@H]2O [paclitaxel] |  |  |  |  |  | improve cardiac conduction defects | significantly reduced the percentage of nuclei with chromatin protrusions | significantly reduced | significantly reduced nuclear deformation
